Earlier results as cited in patent publication US20080187561A1, “Enteric Coated Didanosine Compositions Having A Subcoat” (priority 2007, published 2008).

Details: pH<3, 37° C., acidic solution

Time in which 10% of didanosine decomposes to hypoxanthine: less than 2 minutes
Compound: OC[C@@H]1CC[C@H](n2cnc3c(O)ncnc32)O1 [didanosine, 2′,3′-dideoxyinosine]
